These results are taken from ChEMBL document CHEMBL4507318, “Data for DCP probe BAY-985” (2021).

Active and inactive are the calls of the source. The rule behind the calls is not given here.

Test [1] addresses Calcium/calmodulin-dependent protein kinase type II subunit beta (Homo sapiens) (UniProt Q13554).
The target in test [2] is Ephrin type-B receptor 2 (Homo sapiens) (UniProt P29323).
Test [3] addresses Histamine H2 receptor (Homo sapiens) (UniProt P25021). Particulars: Compound concentration 10.0 uM.
The target in test [4] is GABA-A receptor; anion channel (Rattus norvegicus) (UniProt O09028+P15431+P18506+P18508+P19969+P20236+P23574+P23576+P28471+P28473+P30191+P62813+P63079+P63138+Q91ZM7+Q9ES14). Particulars: Compound concentration 10.0 uM.
For test [5], the target named is Histamine H3 receptor (Homo sapiens) (UniProt Q9Y5N1). Particulars: Compound concentration 10.0 uM.
For test [6], the target named is Serine/threonine-protein kinase/endoribonuclease IRE1 (Homo sapiens) (UniProt O75460).
Test [7] deals with Sodium-dependent dopamine transporter (Homo sapiens) (UniProt Q01959). Particulars: Compound concentration 10.0 uM.
Test [8] has as its target Dual specificity mitogen-activated protein kinase kinase 5 (Homo sapiens, UniProt Q13163). In words: NanoBRET with MAP2K5.
The target of test [9] is Angiopoietin-1 receptor (Homo sapiens) (UniProt Q02763).
Test [10] addresses T1, Serine/threonine-protein kinase TBK1 (Homo sapiens, UniProt Q9UHD2). In words: Biochemical assay (high ATP) with TBK1.
In test [11] the target is Inhibitor of nuclear factor kappa-B kinase subunit epsilon (Homo sapiens, UniProt Q14164). In words: cell-based.
Test [12] addresses T1, Serine/threonine-protein kinase TBK1. In words: cell-based.
Test [13] deals with Serine/threonine-protein kinase TAO2 (Homo sapiens) (UniProt Q9UL54).
The target of test [14] is 5-hydroxytryptamine receptor 2B (Homo sapiens, UniProt P41595). In words: GPCRScan assay: inhibition of 5-HT2B. Set-up: radioligand conc. used [nm] 1.0 – 2.0, parental cells stable HEK.
For test [15], the target named is Tyrosine-protein kinase ABL1 (Homo sapiens) (UniProt P00519).
Test [16] has as its target Cyclin-dependent kinase 4 (Homo sapiens) (UniProt P11802).
For test [17], the target named is Glycogen synthase kinase-3 beta (Homo sapiens) (UniProt P49841).
Test [18] addresses Serine/threonine-protein kinase 17A (Homo sapiens, UniProt Q9UEE5). In words: NanoBRET with STK17A. (In general: In BRET a luciferase serves as donor, and the signal depends on an acceptor being close.)
Test [19] has as its target Inhibitor of nuclear factor kappa-B kinase subunit beta (Homo sapiens) (UniProt O14920).
In test [20] the target is Serine/threonine-protein kinase PRP4 homolog (Homo sapiens) (UniProt Q13523).
Test [21] has as its target Mitogen-activated protein kinase 10 (Homo sapiens) (UniProt P53779).
For test [22], the target named is Mitogen-activated protein kinase kinase kinase 19 (Homo sapiens, UniProt Q56UN5). In words: NanoBRET with MAP3K19.
The target in test [23] is Rhodopsin kinase GRK1 (Homo sapiens) (UniProt Q15835).
For test [24], the target named is Ribosomal protein S6 kinase alpha-5 (Homo sapiens) (UniProt O75582).
For test [25], the target named is Serine/threonine-protein kinase D2 (Homo sapiens) (UniProt Q9BZL6).
Test [26] concerns the target Receptor-type tyrosine-protein kinase FLT3 (Homo sapiens, UniProt P36888). In words: NanoBRET with FTL3.
The target in test [27] is 5-hydroxytryptamine receptor 2A (Homo sapiens) (UniProt P28223). Particulars: Compound concentration 10.0 uM.
Setting [28] is: Compound concentration 100.0 nM.
[29] abbreviates: Compound concentration 1000.0 nM.

Sequence of Serine/threonine-protein kinase TAO2 (Homo sapiens) (Q9UL54 whole entry): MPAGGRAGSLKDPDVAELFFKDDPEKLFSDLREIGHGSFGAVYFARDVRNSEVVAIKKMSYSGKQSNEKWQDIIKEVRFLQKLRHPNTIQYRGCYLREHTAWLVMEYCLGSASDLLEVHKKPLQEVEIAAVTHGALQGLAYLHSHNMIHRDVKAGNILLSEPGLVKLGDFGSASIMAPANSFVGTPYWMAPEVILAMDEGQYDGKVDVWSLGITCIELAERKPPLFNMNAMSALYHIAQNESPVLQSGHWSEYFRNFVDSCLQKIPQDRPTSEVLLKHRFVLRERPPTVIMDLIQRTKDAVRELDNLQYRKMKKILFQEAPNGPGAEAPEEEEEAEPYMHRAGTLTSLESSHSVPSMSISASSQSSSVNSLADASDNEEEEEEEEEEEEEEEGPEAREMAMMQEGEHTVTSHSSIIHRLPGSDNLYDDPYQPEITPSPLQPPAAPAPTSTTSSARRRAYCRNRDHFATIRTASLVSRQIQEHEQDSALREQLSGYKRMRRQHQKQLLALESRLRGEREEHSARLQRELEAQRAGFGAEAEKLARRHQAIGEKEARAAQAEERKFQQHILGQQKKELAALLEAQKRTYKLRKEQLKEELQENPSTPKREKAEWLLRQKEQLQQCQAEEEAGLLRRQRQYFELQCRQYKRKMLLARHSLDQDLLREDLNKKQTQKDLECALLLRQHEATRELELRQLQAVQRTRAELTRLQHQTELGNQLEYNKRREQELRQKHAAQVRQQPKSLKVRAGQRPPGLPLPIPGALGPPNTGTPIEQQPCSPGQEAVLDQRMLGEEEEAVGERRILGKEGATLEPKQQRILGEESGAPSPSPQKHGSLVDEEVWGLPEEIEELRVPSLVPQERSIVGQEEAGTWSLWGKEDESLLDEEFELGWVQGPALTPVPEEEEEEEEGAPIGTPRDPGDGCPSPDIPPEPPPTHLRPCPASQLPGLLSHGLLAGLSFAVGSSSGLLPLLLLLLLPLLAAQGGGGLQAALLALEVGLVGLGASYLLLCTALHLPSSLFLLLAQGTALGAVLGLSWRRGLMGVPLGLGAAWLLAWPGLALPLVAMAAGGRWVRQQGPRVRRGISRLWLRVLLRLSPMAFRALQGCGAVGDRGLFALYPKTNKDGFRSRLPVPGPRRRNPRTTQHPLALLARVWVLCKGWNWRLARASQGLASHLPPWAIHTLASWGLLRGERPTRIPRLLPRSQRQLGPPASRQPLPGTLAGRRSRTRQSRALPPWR
Sequence of Cyclin-dependent kinase 4 (Homo sapiens) (P11802 whole entry): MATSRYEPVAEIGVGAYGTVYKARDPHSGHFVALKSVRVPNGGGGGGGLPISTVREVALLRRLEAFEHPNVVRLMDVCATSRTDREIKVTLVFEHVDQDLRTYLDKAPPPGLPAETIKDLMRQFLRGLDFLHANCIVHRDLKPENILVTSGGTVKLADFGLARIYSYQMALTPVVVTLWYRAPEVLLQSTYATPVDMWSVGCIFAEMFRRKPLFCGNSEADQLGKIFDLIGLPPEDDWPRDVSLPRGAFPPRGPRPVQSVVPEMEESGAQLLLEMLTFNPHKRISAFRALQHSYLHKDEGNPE
Sequence of Rhodopsin kinase GRK1 (Homo sapiens) (Q15835 whole entry): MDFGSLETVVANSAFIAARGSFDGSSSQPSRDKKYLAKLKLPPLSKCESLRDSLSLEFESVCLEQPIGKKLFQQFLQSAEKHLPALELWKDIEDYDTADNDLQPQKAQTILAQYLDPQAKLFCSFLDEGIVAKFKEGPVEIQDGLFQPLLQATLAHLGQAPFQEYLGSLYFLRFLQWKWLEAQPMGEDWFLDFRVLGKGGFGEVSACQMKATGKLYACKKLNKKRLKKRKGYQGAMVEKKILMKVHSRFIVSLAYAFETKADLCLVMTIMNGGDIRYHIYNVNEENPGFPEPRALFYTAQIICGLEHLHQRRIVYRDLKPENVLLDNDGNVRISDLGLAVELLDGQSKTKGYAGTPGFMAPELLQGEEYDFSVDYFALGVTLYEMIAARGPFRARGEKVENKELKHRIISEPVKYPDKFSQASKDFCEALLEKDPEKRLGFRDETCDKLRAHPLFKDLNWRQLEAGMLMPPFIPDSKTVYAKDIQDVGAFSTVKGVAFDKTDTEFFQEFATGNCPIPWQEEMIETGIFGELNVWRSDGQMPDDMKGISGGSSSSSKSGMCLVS
Sequence of Histamine H2 receptor (Homo sapiens) (P25021 whole entry): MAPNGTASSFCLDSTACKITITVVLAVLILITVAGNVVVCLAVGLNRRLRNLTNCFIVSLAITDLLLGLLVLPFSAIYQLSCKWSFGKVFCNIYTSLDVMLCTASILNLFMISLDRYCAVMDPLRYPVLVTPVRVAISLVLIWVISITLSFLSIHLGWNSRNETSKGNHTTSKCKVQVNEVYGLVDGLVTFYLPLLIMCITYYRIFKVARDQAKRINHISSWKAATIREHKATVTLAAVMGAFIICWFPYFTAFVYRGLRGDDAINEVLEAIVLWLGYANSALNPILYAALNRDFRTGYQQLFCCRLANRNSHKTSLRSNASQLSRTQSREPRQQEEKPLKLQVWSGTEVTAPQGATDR
T1 sequence (Q9UHD2 whole entry): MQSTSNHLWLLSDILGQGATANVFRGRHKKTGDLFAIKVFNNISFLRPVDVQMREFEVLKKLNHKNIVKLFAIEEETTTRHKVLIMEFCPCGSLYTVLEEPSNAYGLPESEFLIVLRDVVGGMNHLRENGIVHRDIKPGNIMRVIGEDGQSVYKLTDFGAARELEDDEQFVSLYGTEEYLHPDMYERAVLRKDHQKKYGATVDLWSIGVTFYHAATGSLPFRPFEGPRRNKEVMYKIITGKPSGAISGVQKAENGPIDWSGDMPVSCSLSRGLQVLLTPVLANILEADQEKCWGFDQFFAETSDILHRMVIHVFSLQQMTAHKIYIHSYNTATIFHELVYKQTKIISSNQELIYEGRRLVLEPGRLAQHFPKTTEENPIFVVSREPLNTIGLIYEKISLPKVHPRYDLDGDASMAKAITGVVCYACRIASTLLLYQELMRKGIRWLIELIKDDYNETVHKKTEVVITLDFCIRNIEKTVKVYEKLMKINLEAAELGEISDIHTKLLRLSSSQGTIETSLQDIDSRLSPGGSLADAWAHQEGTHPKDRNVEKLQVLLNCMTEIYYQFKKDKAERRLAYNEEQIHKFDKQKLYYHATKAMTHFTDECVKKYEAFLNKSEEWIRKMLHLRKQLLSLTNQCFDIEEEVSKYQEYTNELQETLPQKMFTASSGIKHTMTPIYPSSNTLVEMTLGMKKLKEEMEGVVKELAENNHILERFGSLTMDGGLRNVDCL
Sequence of Calcium/calmodulin-dependent protein kinase type II subunit beta (Homo sapiens) (Q13554 whole entry): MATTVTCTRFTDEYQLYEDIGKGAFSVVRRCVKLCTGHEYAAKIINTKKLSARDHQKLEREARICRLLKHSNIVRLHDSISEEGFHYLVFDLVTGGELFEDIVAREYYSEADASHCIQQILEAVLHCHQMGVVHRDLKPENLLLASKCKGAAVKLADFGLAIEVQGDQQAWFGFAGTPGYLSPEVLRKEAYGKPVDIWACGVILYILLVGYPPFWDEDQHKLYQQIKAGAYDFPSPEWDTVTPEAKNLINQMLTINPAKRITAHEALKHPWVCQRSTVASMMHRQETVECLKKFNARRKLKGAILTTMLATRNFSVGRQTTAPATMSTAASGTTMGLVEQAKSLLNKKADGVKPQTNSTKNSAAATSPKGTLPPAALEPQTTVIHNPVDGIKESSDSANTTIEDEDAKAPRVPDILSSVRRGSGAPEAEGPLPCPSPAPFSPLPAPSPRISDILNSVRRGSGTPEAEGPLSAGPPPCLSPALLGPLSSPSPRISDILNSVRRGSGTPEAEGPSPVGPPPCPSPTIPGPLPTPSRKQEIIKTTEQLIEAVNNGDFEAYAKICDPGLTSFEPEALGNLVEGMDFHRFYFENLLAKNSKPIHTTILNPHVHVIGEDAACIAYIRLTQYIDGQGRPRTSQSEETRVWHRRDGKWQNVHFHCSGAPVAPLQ
Sequence of Serine/threonine-protein kinase D2 (Homo sapiens) (Q9BZL6 whole entry): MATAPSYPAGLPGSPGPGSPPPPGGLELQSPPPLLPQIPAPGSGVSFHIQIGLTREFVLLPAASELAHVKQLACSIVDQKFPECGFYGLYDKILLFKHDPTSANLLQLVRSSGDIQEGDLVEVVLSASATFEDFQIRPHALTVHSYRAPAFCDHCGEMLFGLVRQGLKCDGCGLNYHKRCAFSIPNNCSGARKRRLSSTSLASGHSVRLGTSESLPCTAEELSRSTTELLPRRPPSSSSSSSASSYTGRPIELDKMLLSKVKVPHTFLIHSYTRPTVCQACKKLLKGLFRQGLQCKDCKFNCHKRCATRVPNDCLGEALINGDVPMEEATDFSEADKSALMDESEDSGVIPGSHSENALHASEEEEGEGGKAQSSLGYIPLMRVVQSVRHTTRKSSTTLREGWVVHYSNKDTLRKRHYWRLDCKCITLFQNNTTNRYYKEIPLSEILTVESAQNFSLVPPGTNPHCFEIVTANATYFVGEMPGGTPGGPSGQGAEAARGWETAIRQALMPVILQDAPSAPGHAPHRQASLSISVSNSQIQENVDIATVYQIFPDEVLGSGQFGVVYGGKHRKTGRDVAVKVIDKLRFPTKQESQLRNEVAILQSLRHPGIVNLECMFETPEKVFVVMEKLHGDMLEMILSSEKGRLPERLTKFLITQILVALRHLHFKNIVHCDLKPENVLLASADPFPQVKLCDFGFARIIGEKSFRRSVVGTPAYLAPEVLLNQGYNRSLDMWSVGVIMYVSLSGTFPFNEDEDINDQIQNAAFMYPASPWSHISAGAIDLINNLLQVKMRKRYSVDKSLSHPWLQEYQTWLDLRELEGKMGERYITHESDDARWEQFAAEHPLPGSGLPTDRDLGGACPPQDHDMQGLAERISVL

One may read the inhibition as the drop in the measured response relative to a control, in per cent. Broadly, the IC50 is the midpoint of a concentration-inhibition curve. Take `C[C@H](c1ccnc(Nc2nc3ccc(-c4cc(N(C)C)ncn4)cc3[nH]2)c1)N1CCN(C(=O)CC(F)(F)F)CC1` [BAY-985]: the residual activity in [1] (setting [28]) is 92%; in test [2] (setting [28]), 93%; in test [6] (setting [28]), 86%; in test [9] (setting [28]), 99%; in [13] (setting [28]), 100%; in test [15] (setting [28]), 89%. For the same molecule, the residual activity in [16] (setting [28]) is 100%; in test [17] (setting [28]), 100%; in test [19] (setting [28]), 99%; in test [20] (setting [28]) it was 80%; in test [21] (setting [28]) it was 81%; in [23] (setting [28]), 90%. For the same molecule, the results for the residual activity in test [24] (setting [28]) and in test [25] (setting [28]) were 61% and 100%, respectively. The inhibition was 3.55% in [3], 23% in test [4], -3.83% in test [5] and 30.5% in test [7]. Also, the IC50 is > 20 µM (not active) in test [8]; 18 nM (active) in [10]; 1.73 µM (active) in test [11]; 312 nM (active) in [12]; > 20 µM (not active) in test [18]; > 20 µM (not active) in [22]. Moreover, the IC50 in test [26] was > 20 µM (not active). The Ki in test [14] (read-out: Ki) was 1310 nM; in test [14] (read-out: pKi (converted)), 1290 nM.
As for `CN(C)c1ncnc(-c2ccc3nc(Nc4cc(CN5CCN(C(=O)CC(F)(F)F)CC5)ccn4)[nH]c3c2)c1Cl` [BAY-440], the residual activity was 100% in [1] (setting [29]); 100% in test [2] (setting [29]); 62% in test [6] (setting [29]); 87% in [9] (setting [29]); 80% in test [13] (setting [29]); 26% in test [15] (setting [29]). Further, the residual activity in test [16] (setting [29]) is 83%; in test [17] (setting [29]) it was 100%; in test [19] (setting [29]), 80%; in [20] (setting [29]), 100%; in test [21] (setting [29]), 51%; in test [23] (setting [29]), 90%. Further, the figures for the residual activity in test [24] (setting [29]) and in test [25] (setting [29]) were 85% and 84%, respectively. Besides, the inhibition in test [3] was 32.6%; in test [5] it was 4.68%; in [27], -4.19%.
